Results reported in patent US20220241296A1, “PROCESS FOR THE PREPARATION OF STERILE OPHTHALMIC AQUEOUS FLUTICASONE PROPIONATE FORM A NANOCRYSTALS SUSPENSIONS” (NICOX OPHTHALMICS, INC., priority 2019, published 2022).
Where “and” joins values, the source holds several entries; their conditions need not be identical. Identical values can stand only once.

Columns and labels:
[1] = In vitro dissolution test (compartment diffusion through dialysis membrane, sink condition); type: physicochemical
Protocol: The dissolution rate of the Fluticasone propionate form A nanocrystals of the nanosuspension of the invention was assessed and compared to the dissolution rate of a standard Fluticasone propionate form 1 micronized material (reference sample). Dissolution profiles of nanocrystals of Fluticasone propionate form A of two nanosuspensions of the invention and of Fluticasone propionate form 1 micronized were performed using a dissolution method. The study was performed using a compartment diffusion analysis through a dialysis membrane and sink condition. The sink condition was achieved through the use of a receptor fluid containing 30 mM phosphate buffer, pH 7.4 with 5% HPβCD cyclodextrins and also by a complete replacement of the buffer every 24 hours to stay below the saturation point. The saturation point was estimated to be 5 μg/g under those experimental conditions and the measurements performed as well as the buffer replacement have shown a maximum concentration of 1.5 μg/g. The study was conducted at a temperature of 37° C. The details of the dissolution test method are provided below: A 5-fold dilution with the formulation vehicle (placebo solution containing all the formulation excipients including the surfactants) of two 0.1% w/w Fluticasone propionate form A nanosuspensions was conducted to obtain a final concentration of 0.02% w/w Fluticasone propionate inside the dialysis device. Fluticasone propionate form 1 micronized was suspended in the same phosphate buffer used in the receiving compartment of the dialysis system. Fluticasone propionate release was carried at 1-2 RPM. […] These aliquots were immediately centrifuged and the measurements were performed by HPLC

[2] = 14-day repeated dose toxicokinetic study, topical application to eyelid margin; parameters: species or system Beagle dogs; conditions: dog, in vivo; for Cmax / Tmax / AUC(0-t) / AUC0-24 h: Beagle, topical or ocular; for AUC(0-t): AUC0-24 h
Description: The purpose of this study was to evaluate the toxicokinetic of fluticasone propionate Form A nanosuspensions of the invention (see Table 10 below) administered via topical application directly to the rim (margin) of upper and lower eyelids of both eyes of Beagle dogs.
Fifty naïve Beagle dogs (25 males and 25 females), approximately 5-6 months old and weighing 5.7 to 8.8 kg for males and females at the outset of the study were assigned to treatment groups (groups 1-4) and to vehicle group.
Male and female Beagle dogs were dosed with fluticasone propionate at 1.6, 9.6, and 32 μg/day (bilateral QD topical application) or at 64 μg/day (bilateral BID topical application) via eye lid applicator directly to the upper and lower eyelids of both eyes once or twice daily (minimum of 6 hours between doses) for 14 consecutive days.
Blood for toxicokinetic evaluation was collected from all animals at selected time points on Days 1 and 14.
Ophthalmology examinations were performed prior to treatment initiation, during the first and second weeks of dosing and during the last week of recovery. Eyes were scored once daily according to the modified Draize scale.
The reversibility of the effects of Fluticasone Propionate nanosuspension was assessed with a 14-day recovery period.

[3] = Particle size distribution by laser diffraction (Horiba LA-950) during preparation; type: physicochemical; conditions: for particle size (D50—median): materials used in the dissolution test
Protocol: The particle size of the isolated nanocrystals was evaluated using a laser scattering Particle size distribution analyzer (Horiba LA-950).
4000 g of vehicle 1 were introduced into a 10 L process vessel containing a stir bar, by filtration through a PES 0.2 μm media and were set aside for further use. In a 2 L beaker, 15.04 g of the fluticasone propionate Form A nanocrystals were introduced together with some vehicle 1. […] This concentrated slurry was subject to high-shear, high-speed mixing at 6000±10 RPM for 10 minutes and the particle size distribution was tested by laser diffraction on a Horiba LA-950S2 PSD analyzer.
The 1% w/w fluticasone propionate Form A nanocrystals slurry was subject to high-shear, high-speed mixing at 6000±10 RPM for 10 minutes and the particle size distribution was tested by laser diffraction using a Horiba LA-95052 PSD analyzer.
The particle size distribution was tested by laser diffraction using a Horiba LA-950S2 PSD analyzer.

[4] = time point 3 h, 37° C., listed as Fluticasone propionate form A nanocrystals
[5] = time point 5 h, 37° C., listed as Fluticasone propionate form A nanocrystals
[6] = time point 19 h, 37° C., listed as Fluticasone propionate form A nanocrystals
[7] = time point 24 h, 37° C., listed as Fluticasone propionate form A nanocrystals
[8] = time point 48 h, 37° C., listed as Fluticasone propionate form A nanocrystals
[9] = time point 72 h, 37° C., listed as Fluticasone propionate form A nanocrystals
[10] = particle size at preparation, Horiba LA-950

CCC(=O)O[C@]1(C(=O)SCF)[C@H](C)C[C@H]2[C@@H]3C[C@H](F)C4=CC(=O)C=C[C@]4(C)[C@@]3(F)[C@@H](O)C[C@@]21C [Fluticasone Propionate, fluticasone propionate]
saturation point ([1]; receptor fluid: 30 mM phosphate buffer, pH 7.4 with 5% HPβCD, 37° C.): ~5 µg/g | Cmax ([2]; both sexes, 1.6 ug/day, Cmax): 0.0281 ± 0.0266 ng/mL | Tmax ([2]; both sexes, 1.6 ug/day, Tmax): 45 min | AUC(0-t) ([2]; both sexes, 9.6 ug/day): 0.191 ± 0.335 ng·h/mL | Cmax ([2]; both sexes, 9.6 ug/day, Cmax): 0.0608 ± 0.0487 ng/mL | Tmax ([2]; both sexes, 9.6 ug/day, Tmax): 30 min | AUC(0-t) ([2]; both sexes, 32 ug/day): 0.481 ± 0.361 ng·h/mL | Cmax ([2]; both sexes, 32 ug/day, Cmax): 0.13 ± 0.155 ng/mL | Tmax ([2]; both sexes, 32 ug/day, Tmax): 30 min | AUC(0-t) ([2]; both sexes, 64 ug/day): 0.914 ± 0.413 ng·h/mL | Cmax ([2]; both, 1.6 ug/day): 0.0324 ± 0.0264 ng/mL | Tmax ([2]; both, 1.6 ug/day): 30 min | AUC0-24 h ([2]; both, 9.6 ug/day): 0.101 ± 0.102 ng·h/mL | Cmax ([2]; both, 9.6 ug/day): 0.0798 ± 0.07 ng/mL | Tmax ([2]; both, 9.6 ug/day): 30 min | AUC0-24 h ([2]; both, 32 ug/day): 0.482 ± 0.407 ng·h/mL | Cmax ([2]; both, 32 ug/day): 0.25 ± 0.219 ng/mL | Tmax ([2]; both, 32 ug/day): 30 min | AUC0-24 h ([2]; both, 64 ug/day): 0.76 ± 0.188 ng·h/mL | exposure versus dose [2]: dose-dependent | gender-related differences in exposure [2]: no discernable gender-related differences in exposure

CCC(=O)O[C@]1(C(=O)SCF)[C@H](C)C[C@H]2[C@@H]3C[C@H](F)C4=CC(=O)C=C[C@]4(C)[C@@]3(F)[C@@H](O)C[C@@]21C [Micronized Fluticasone propionate form 1, fluticasone propionate]
% Dissolution Average % ([1]; time point 3 h, 37° C.): 0.7% | % Dissolution Tube #1 ([1]; time point 3 h, 37° C.): 0.8% | % Dissolution Tube #2 ([1]; time point 3 h, 37° C.): 0.5% | % Dissolution Tube #3 ([1]; time point 3 h, 37° C.): 0.9% | % Dissolution Average % ([1]; time point 5 h, 37° C.): 2.6% | % Dissolution Tube #1 ([1]; time point 5 h, 37° C.): 2.9% | % Dissolution Tube #2 ([1]; time point 5 h, 37° C.): 1.9% | % Dissolution Tube #3 ([1]; time point 5 h, 37° C.): 3.0% | % Dissolution Average % ([1]; time point 19 h, 37° C.): 19.4% | % Dissolution Tube #1 ([1]; time point 19 h, 37° C.): 20.9% | % Dissolution Tube #2 ([1]; time point 19 h, 37° C.): 17.1% | % Dissolution Tube #3 ([1]; time point 19 h, 37° C.): 20.3% | % Dissolution Average % ([1]; time point 24 h, 37° C.): 22.6% | % Dissolution Tube #1 ([1]; time point 24 h, 37° C.): 24.2% | % Dissolution Tube #2 ([1]; time point 24 h, 37° C.): 20.2% | % Dissolution Tube #3 ([1]; time point 24 h, 37° C.): 23.5% | % Dissolution Average % ([1]; time point 48 h, 37° C.): 48.6% | % Dissolution Tube #1 ([1]; time point 48 h, 37° C.): 51.1% | % Dissolution Tube #2 ([1]; time point 48 h, 37° C.): 44.0% | % Dissolution Tube #3 ([1]; time point 48 h, 37° C.): 50.6% | % Dissolution Average % ([1]; time point 72 h, 37° C.): 73.4% | % Dissolution Tube #1 ([1]; time point 72 h, 37° C.): 77.4% | % Dissolution Tube #2 ([1]; time point 72 h, 37° C.): 66.7% | % Dissolution Tube #3 ([1]; time point 72 h, 37° C.): 76.2% | particle size (D50—median) ([3]; listed as Fluticasone propionate form 1 micronized material): 4.64 μm | particle size (D50—median) ([3]; listed as micronized Fluticasone propionate form 1): 4.64 μm

CCC(=O)O[C@]1(C(=O)SCF)[C@H](C)C[C@H]2[C@@H]3C[C@H](F)C4=CC(=O)C=C[C@]4(C)[C@@]3(F)[C@@H](O)C[C@@]21C [fluticasone propionate]
dissolution profile compared with Fluticasone propionate form 1 micronized material ([1]; despite different particle size): similar | % Dissolution Average % ([1]; time point 1 h, 37° C.): 0.0% | % Dissolution Tube #1 ([1]; time point 1 h, 37° C.): 0.0% | % Dissolution Tube #2 ([1]; time point 1 h, 37° C.): 0.0% | % Dissolution Tube #3 ([1]; time point 1 h, 37° C.): 0.0% | % Dissolution Average % [1, 4]: 0.8% and 0.7% | % Dissolution Tube #1 [1, 4]: 0.2% and 0.6% | % Dissolution Tube #2 [1, 4]: 1.4% and 0.5% | % Dissolution Tube #3 [1, 4]: 0.7% and 0.8% | % Dissolution Average % [1, 5]: 2.2% and 2.3% | % Dissolution Tube #1 [1, 5]: 1.3% and 2.4% | % Dissolution Tube #2 [1, 5]: 2.8% and 2.0% | % Dissolution Tube #3 [1, 5]: 2.4% and 2.6% | % Dissolution Average % [1, 6]: 17.8% and 19.0% | % Dissolution Tube #1 [1, 6]: 14.5% and 19.0% | % Dissolution Tube #2 [1, 6]: 20.4% and 18.2% | % Dissolution Tube #3 [1, 6]: 18.7% and 19.7% | % Dissolution Average % [1, 7]: 21.3% and 22.4% | % Dissolution Tube #1 [1, 7]: 17.5% and 22.4% | % Dissolution Tube #2 [1, 7]: 24.0% and 21.5% | % Dissolution Tube #3 [1, 7]: 22.4% and 23.2% | % Dissolution Average % [1, 8]: 46.2% and 48.5% | % Dissolution Tube #1 [1, 8]: 38.7% and 49.1% | % Dissolution Tube #2 [1, 8]: 51.4% and 45.6% | % Dissolution Tube #3 [1, 8]: 48.6% and 50.9% | % Dissolution Average % [1, 9]: 70.5% and 73.9% | % Dissolution Tube #1 [1, 9]: 59.6% and 75.1% | % Dissolution Tube #2 [1, 9]: 78.1% and 69.1% | % Dissolution Tube #3 [1, 9]: 74.0% and 77.7% | particle size (D50—median) [3]: 0.434 μm | D50 [3, 10]: 0.2153 μm | D90 [3, 10]: 0.6073 μm
